Measurements reported in ChEMBL document CHEMBL1201862, “PubChem BioAssay data set” (2004).
Active and inactive are the calls of the source.

Columns and labels:
[1] = target: Cyclin-dependent kinase 5/CDK5 activator 1 (Homo sapiens, UniProt Q00535); assay: human CDK5 activity blockade – biochemical, microfluidic mobility shift, dry powder, selectivity assay for GSK-3 alpha inhibitor project, dose response (AID 588430)
[2] = target: Glycogen synthase kinase-3 alpha (Homo sapiens, UniProt P49840); assay: Inhibition of Human GSK-3 alpha Activity Measured in Biochemical System Using Microfluidics - 2063-06_Inhibitor_Dose_DryPowder_Activity_Set2. [Related pubchem assays (depositor defined):AID2709]
Sequence of Glycogen synthase kinase-3 alpha (P49840 whole entry): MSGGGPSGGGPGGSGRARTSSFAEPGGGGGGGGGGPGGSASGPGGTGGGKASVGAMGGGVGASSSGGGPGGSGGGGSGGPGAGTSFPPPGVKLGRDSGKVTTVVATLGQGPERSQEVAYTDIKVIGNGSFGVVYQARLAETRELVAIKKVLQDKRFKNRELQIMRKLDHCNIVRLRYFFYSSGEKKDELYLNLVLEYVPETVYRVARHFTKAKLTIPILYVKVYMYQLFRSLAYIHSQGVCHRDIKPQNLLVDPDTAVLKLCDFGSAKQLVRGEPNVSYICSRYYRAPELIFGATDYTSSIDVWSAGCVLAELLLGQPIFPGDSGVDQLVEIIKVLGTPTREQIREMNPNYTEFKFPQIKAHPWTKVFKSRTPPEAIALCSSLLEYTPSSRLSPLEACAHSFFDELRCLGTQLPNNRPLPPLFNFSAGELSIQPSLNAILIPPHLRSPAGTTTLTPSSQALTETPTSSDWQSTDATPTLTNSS

[3] = target: Glycogen synthase kinase-3 beta (Homo sapiens, UniProt P49841); assay: Inhibition of Human GSK-3 beta Activity Measured in Biochemical System Using Microfluidics - 2063-05_Inhibitor_Dose_DryPowder_Activity_Set2. [Related pubchem assays (depositor defined):AID2709]
Sequence of Glycogen synthase kinase-3 beta (P49841 whole entry): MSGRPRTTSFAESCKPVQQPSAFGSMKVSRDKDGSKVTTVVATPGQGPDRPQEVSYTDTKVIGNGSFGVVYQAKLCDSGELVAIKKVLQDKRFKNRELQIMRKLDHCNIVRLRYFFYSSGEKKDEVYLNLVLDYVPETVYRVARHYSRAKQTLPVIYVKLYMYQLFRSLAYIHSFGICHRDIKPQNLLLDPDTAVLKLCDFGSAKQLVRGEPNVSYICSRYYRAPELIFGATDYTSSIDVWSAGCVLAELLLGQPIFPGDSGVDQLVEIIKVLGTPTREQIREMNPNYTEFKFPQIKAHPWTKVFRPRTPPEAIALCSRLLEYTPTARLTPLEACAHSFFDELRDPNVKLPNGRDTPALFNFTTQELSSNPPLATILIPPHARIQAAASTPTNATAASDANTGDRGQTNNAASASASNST

[4] = target: Protein disulfide-isomerase (Homo sapiens, UniProt P07237); assay: inhibition of PDI-driven insulin aggregation – biochemical, turbidity, absorbance, cherry-picked samples, dose response (AID 602350); format: functional
Sequence of Protein disulfide-isomerase (P07237 whole entry): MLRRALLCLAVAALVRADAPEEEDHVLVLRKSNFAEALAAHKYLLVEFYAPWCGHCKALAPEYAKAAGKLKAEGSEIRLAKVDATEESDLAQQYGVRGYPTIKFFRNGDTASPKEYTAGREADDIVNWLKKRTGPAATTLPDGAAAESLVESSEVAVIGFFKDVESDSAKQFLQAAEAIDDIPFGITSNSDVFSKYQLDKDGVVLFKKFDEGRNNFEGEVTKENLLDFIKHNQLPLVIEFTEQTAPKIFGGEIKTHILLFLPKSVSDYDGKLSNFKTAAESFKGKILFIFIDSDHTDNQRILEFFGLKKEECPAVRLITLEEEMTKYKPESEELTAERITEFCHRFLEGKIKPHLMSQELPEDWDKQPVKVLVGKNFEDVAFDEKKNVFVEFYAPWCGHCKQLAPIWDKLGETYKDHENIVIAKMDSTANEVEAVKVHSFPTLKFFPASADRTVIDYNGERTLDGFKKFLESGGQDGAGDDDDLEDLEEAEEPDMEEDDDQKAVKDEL

[5] = target: ALK tyrosine kinase receptor (Homo sapiens, UniProt Q9UM73); format: functional;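 note: ALK tested as one member of a kinase panel screen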
Sequence of ALK tyrosine kinase receptor (Q9UM73 whole entry): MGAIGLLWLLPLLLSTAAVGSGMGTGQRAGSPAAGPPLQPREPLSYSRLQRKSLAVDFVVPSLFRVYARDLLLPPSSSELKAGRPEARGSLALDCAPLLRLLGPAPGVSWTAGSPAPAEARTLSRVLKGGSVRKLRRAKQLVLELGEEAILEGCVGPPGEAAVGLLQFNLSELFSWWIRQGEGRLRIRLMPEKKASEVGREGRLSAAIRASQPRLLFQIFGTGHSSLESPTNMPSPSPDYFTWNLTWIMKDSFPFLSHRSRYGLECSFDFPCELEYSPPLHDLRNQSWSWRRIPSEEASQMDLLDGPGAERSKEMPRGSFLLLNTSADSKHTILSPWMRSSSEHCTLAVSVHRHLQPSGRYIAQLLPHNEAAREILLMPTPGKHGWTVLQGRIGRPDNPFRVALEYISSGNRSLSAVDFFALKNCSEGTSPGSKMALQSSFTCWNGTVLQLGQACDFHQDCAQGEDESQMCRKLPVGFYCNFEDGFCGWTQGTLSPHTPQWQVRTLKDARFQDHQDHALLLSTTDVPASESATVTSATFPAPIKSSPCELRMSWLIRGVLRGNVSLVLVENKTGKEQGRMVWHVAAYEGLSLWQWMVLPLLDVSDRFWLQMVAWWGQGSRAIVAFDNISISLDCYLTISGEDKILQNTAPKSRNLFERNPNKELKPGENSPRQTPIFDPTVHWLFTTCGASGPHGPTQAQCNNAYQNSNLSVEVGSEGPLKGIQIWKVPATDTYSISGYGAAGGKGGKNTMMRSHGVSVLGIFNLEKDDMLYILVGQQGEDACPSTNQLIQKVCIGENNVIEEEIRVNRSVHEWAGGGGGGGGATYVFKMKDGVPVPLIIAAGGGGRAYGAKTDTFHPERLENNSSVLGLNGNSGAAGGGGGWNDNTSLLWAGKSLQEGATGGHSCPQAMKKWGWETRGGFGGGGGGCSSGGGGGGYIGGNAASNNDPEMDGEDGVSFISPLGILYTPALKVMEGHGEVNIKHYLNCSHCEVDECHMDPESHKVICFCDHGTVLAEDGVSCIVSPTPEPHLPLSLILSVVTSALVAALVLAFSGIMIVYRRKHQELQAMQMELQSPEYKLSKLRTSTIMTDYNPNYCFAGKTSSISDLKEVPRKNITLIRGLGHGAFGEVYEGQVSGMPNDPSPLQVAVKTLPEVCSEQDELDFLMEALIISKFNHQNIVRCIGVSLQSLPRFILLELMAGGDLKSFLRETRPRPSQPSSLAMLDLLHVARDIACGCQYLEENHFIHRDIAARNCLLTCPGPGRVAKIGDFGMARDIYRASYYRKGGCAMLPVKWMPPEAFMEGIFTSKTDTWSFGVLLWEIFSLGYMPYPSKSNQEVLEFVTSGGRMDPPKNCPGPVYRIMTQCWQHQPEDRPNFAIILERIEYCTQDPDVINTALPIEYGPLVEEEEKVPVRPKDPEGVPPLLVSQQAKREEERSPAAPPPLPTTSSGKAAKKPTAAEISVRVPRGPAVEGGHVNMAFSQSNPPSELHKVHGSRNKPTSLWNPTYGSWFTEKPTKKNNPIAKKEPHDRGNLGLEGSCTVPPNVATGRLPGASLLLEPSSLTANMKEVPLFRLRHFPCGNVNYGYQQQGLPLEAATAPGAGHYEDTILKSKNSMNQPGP

[6] = target: Cyclin-dependent kinase 19 (Homo sapiens, UniProt Q9BWU1); assay: Navigating the Kinome. Panel member name: CDC2L6; format: functional
Sequence of Cyclin-dependent kinase 19 (Q9BWU1 whole entry): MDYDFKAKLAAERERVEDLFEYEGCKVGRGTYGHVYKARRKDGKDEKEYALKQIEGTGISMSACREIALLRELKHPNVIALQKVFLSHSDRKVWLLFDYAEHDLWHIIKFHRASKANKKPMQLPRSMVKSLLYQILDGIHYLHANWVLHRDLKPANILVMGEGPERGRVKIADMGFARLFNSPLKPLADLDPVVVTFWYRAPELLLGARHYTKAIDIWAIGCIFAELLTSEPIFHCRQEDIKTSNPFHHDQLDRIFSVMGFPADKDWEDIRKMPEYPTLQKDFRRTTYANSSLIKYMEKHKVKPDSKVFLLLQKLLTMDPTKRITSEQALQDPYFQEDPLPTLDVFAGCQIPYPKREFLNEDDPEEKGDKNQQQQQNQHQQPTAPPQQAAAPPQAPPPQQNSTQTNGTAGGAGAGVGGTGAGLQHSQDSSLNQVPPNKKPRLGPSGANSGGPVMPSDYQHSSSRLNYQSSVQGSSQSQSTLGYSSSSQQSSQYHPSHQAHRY

[7] = target: Sphingosine 1-phosphate receptor 2 (Homo sapiens, UniProt O95136); assay: Late-stage fluorescence-based dose-response cell-based counterscreen assay to identify agonists of the Sphingosine 1-Phosphate Receptor 3 (S1P3): Sphingosine 1-Phosphate Receptor 2 (S1P2) agonist assay.; format: functional
Sequence of Sphingosine 1-phosphate receptor 2 (O95136 whole entry): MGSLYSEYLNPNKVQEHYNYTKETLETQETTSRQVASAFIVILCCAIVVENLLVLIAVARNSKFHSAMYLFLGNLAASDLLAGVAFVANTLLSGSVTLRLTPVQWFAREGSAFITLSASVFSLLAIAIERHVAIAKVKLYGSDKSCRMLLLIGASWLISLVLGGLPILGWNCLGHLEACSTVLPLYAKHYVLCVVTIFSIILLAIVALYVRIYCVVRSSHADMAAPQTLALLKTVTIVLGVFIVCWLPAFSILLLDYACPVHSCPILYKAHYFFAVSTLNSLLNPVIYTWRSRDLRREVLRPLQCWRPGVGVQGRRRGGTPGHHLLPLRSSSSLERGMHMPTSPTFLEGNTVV

[8] = target: T1, Sphingosine 1-phosphate receptor 4 (Homo sapiens, UniProt O95977); assay: Late-stage fluorescence-based dose-response cell-based counterscreen assay to identify agonists of the Sphingosine 1-Phosphate Receptor 3 (S1P3): Sphingosine 1-Phosphate Receptor 4 (S1P4) agonist assay.; format: functional
T1 sequence (O95977 whole entry): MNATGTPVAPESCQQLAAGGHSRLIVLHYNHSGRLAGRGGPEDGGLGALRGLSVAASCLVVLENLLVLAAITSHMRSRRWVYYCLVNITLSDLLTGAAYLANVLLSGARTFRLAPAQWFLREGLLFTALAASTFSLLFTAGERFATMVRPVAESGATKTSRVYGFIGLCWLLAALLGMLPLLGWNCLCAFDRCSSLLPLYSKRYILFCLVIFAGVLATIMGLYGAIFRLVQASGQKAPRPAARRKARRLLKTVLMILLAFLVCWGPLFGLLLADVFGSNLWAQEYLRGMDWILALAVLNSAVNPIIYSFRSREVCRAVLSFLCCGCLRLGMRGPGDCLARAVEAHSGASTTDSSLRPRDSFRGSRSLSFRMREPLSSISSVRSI

[9] = target: T2, Apoptotic protease-activating factor 1 (Homo sapiens, UniProt O14727); assay: SAR analysis of small molecule inhibitors of Apaf-1 in a Fluorescent assay.; format: functional; conditions: read-out: IC50_Mean
T2 sequence (O14727 whole entry): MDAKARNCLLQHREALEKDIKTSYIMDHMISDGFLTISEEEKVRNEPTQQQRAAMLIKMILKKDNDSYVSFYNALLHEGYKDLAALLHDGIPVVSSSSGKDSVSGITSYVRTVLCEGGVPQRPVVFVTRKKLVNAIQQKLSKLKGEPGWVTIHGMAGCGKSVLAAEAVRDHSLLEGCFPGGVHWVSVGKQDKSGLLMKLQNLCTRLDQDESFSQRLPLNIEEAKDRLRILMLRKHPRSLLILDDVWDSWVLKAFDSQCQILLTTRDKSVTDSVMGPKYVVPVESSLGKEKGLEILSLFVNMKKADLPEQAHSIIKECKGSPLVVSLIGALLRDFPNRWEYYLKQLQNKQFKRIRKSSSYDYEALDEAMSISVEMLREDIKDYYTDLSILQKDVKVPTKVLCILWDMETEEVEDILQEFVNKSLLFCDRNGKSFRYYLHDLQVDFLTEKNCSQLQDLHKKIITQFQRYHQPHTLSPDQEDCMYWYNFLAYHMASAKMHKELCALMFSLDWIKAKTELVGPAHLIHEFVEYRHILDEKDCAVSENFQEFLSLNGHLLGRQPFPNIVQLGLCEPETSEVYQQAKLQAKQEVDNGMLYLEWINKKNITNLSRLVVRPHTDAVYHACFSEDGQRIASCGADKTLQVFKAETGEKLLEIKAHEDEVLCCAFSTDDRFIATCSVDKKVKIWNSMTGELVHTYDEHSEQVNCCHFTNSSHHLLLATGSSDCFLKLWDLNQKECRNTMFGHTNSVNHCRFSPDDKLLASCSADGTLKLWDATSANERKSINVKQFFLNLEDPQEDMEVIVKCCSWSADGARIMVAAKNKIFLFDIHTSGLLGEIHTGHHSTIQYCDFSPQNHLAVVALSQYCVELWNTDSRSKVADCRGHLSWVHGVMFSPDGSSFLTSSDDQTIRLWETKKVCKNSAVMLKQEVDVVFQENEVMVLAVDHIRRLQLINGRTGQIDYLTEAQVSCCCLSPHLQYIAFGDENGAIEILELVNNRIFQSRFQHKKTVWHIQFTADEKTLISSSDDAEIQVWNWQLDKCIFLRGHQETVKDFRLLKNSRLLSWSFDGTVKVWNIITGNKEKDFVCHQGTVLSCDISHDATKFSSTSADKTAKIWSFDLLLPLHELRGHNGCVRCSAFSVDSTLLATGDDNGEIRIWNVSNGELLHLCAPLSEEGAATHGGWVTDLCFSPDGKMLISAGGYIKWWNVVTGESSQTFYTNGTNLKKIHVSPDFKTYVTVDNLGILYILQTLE

Sequence of Cyclin-dependent kinase 5/CDK5 activator 1 (Q00535 whole entry): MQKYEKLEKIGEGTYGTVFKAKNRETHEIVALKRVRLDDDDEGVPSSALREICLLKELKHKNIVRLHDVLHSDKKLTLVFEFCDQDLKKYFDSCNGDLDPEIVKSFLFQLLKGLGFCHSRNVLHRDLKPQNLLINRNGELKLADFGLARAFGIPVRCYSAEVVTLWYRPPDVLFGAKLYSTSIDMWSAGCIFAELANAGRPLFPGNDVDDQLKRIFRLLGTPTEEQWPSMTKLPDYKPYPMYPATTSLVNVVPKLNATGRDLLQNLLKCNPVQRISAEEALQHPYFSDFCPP
Sequence of Cyclin-dependent kinase 5/CDK5 activator 1 (Q15078 whole entry, further chain): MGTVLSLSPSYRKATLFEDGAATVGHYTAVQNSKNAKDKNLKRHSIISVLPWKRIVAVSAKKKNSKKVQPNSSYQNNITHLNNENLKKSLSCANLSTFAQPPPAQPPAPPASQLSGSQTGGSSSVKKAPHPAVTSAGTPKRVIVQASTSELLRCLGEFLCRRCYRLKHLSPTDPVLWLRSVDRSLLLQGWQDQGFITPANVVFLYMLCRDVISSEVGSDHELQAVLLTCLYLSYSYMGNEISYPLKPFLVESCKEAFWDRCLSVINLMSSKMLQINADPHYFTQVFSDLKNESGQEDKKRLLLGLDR

Q: What does the source list for `CCCN(CCC)Cc1c(C(=O)N/N=C/c2ccoc2)nnn1-c1nonc1N`?
A: AC50 [1]: 40.6 µM (active); AC50 [2]: 1.24 µM (active); AC50 [3]: 0.457 µM (active)

Q: For `Cc1noc(C)c1S(=O)(=O)Nc1ccc2c(c1)CC(=O)N([C@H](C)CO)C[C@H](C)[C@@H](CN(C)S(=O)(=O)c1ccc(F)cc1)O2`, which AC50 [4] is on record?
A: 19.5 µM (active)

Q: Which Ki [5] does the source give for `CN(C)CCc1ccc(Nc2nccc(-c3c(-c4cccc(C(O)CO)c4)nc4ccccn34)n2)cc1` (centres undefined) here?
A: 3.16 µM (active)

Q: What about the Ki [6] of the same compound?
A: 3.16 µM (active)

Q: How did the EC50 [7] turn out when `O=C(c1cc(-c2ccccc2)on1)N(C1CCCCC1)C1CCCC1` was run?
A: > 50 µM (inactive)

Q: What about the EC50 [8] of the same compound?
A: > 50 µM (inactive)

Q: How did the IC50 [9] turn out when `Cn1cc(C(CC(=O)c2ccc(C(C)(C)C)cc2)C(=O)O)c2ccccc21` (centres undefined) was run?
A: 90.5 µM (active)
